Results published in patent US20020026053A1, “Novel 3-(substituted) -2- indolinones compounds and use thereof as inhibitors of protein kinase activity” (priority 1997, published 2002).
Values joined by “and” are separate entries in the source; they are usually repeats but may differ in a detail not shown here. Identical values can stand only once.

How the values were obtained:
PDGF-R = PDGF-R Assay (cellular ELISA, U1242 cells); type: cell-based; set-up: concentration or dose not given beside the values; conditions: protocol P.119
Protocol: (§1) The cellular/catalytic assays described herein are performed in an ELISA format. The general procedure is as follows: a compound is introduced to cells expressing the test kinase, either naturally or recombinantly, for a selected period of time after which, if the test kinase is a receptor, a ligand known to activate the receptor is added. The cells are lysed and the lysate is transferred to the wells of an ELISA plate previously coated with a specific antibody recognizing the substrate of the enzymatic phosphorylation reaction. Non-substrate components of the cell lysate are washed away and the amount of phosphorylation on the substrate is detected with an antibody specifically recognizing phosphotyrosine compared with control cells that were not contacted with a test compound.
All cell culture media, glutamine, and fetal bovine serum can be purchased from Gibco Life Technologies (Grand Island, N.Y.) unless otherwise specified. All cells are grown in a humid atmosphere of 90-95% air and 5-10% CO2 at 37° C. All cell lines are routinely subcultured twice a week and are negative for mycoplasma as determined by the Mycotect method (Gibco).
For ELISA assays, cells (U1242, obtained from Joseph Schlessinger, NYU) are grown to 80-90% confluency in growth medium (MEM with 10% FBS, NEAA, 1 mM NaPyr and 2 mM GLN) and seeded in 96-well tissue culture plates in 0.5% serum at 25,000 to 30,000 cells per well. After overnight incubation in 0.5% serum-containing medium, cells are changed to serum-free medium and treated with test compound for 2 hr in a 5% CO2, 37° C. incubator. Cells are then stimulated with ligand for 5-10 minute followed by lysis with HNTG (20 mM Hepes, 150 mM NaCl, 10% glycerol, 5 mM EDTA, 5 mM Na3VO4, 0.2% Triton X-100, and 2 mM NaPyr). Cell lysates (0.5 mg/well in PBS) are transferred to ELISA plates previously coated with receptor-specific antibody and which had been blocked with 5% milk in TBST (50 mM Tris-HCl pH 7.2, 150 mM NaCl and 0.1% Triton X-100) at room temperature for 30 min. Lysates are incubated with shaking for 1 hour at room temperature. The plates are washed with TBST four times and then incubated with polyclonal anti-phosphotyrosine antibody at room temperature for 30 minutes. Excess anti-phosphotyrosine antibody is removed by rinsing the plate with TBST four times. Goat anti-rabbit IgG antibody is added to the ELISA plate for 30 min at room temperature followed by rinsing with TBST four more times. ABTS (100 mM citric acid, 250 mM Na2HPO4 and 0.5 mg/mL 2,2′-azino-bis (3-ethylbenzthiazoline-6-sulfonic acid)) plus H2O2 ([…] 30% H2O2 to 10 ml ABTS) is added to the ELISA plates to start color development. Absorbance at 410 nm with a reference wavelength of 630 nm is recorded about 15 to 30 min after ABTS addition.

FLK-1 receptor = experiment: FLK-1 Assay (cellular/catalytic ELISA, VEGF-stimulated phosphotyrosine); type: cell-based; set-up: concentration or dose not given beside the values; conditions: protocol P.110
Protocol: as §1
An ELISA assay is conducted to measure the kinase activity of the FLK-1 receptor and more specifically, the inhibition or activation of TK activity on the FLK-1 receptor. Specifically, the following assay can be conducted to measure kinase activity of the FLK-1 receptor in cells genetically engineered to express Flk-1.
a. Corning 96-well ELISA plates (Corning Catalog No. 25805-96);
b. Cappel goat anti-rabbit IgG (catalog no. 55641);
c. PBS (Gibco Catalog No. 450-1300EB);
d. TBSW Buffer (50 mM Tris (pH 7.2), 150 mM NaCl and 0.1% Tween-20);
e. Ethanolamine stock (10% ethanolamine (pH 7.0), stored at 4° C.);
f. HNTG buffer (20 mM HEPES buffer (pH 7.5), 150 mM NaCl, 0.2% Triton X-100, and 10% glycerol);
g. EDTA (0.5 M (pH 7.0) as a 100× stock);
h. Sodium orthovanadate (0.5 M as a 100× stock);
i. Sodium pyrophosphate (0.2 M as a 100× stock);
j. NUNC 96 well V bottom polypropylene plates (Applied Scientific Catalog No. AS-72092);
k. NIH3T3 C7#3 Cells (FLK-1 expressing cells);
l. DMEM with 1× high glucose L-Glutamine (catalog No. 11965-050);
n. L-glutamine, Gibco (catalog no. 25030-016);
o. VEGF, PeproTech, Inc. (catalog no. 100-20)(kept as 1 μg/100 μl stock in Milli-Q dH2O and stored at −20° C.;
p. Affinity purified anti-FLK-1 antiserum;
q. UB40 monoclonal antibody specific for phosphotyrosine (see, Fendley, et al., 1990, Cancer Research 50:1550-1558);
r. EIA grade Goat anti-mouse IgG-POD (BioRad catalog no. 172-1011);
s. 2,2-azino-bis(3-ethylbenz-thiazoline-6-sulfonic acid (ABTS) solution (100 mM citric acid (anhydrous), 250 mM Na2HPO4 (pH 4.0), 0.5 mg/ml ABTS (Sigma catalog no. A-1888)), solution should be stored in dark at 4° C. until ready for use;
t. H2O2 (30% solution) (Fisher catalog no. H325);
u. ABTS/ H2O2 (15 ml ABTS solution, 2 μl H2O2) prepared 5 minutes before use and left at room temperature;
v. 0.2 M HCl stock in H2O;
w. dimethylsulfoxide (100%) (Sigma Catalog No. D-8418); and
y. Trypsin-EDTA (Gibco BRL Catalog No. 25200-049).
1. Coat Corning 96-well ELISA plates with 1.0 μg per well Cappel Anti-rabbit IgG antibody in 0.1M Na2CO3 pH 9.6. Bring final volume to 150 μl per well. Coat plates overnight at 4° C. Plates can be kept up to two weeks when stored at 4° C.
2. Grow cells in Growth media (DMEM, supplemented with 2.0 mM L-Glutamine, 10% FBS) in suitable culture dishes until confluent at 37° C., 5% CO2.
3. Harvest cells by trypsinization and seed in Corning 25850 polystyrene 96-well round bottom cell plates, 25,000 cells/well in 200 μl of growth media.
4. Grow cells at least one day at 37° C., 5% CO2.
5. Wash cells with D-PBS 1×.
6. Add 200 μl/well of starvation media (DMEM, 2.0 mM 1-Glutamine, 0.1% FBS). Incubate overnight at 37° C., 5% CO2.
7. Dilute Compounds 1:20 in polypropylene 96 well plates using starvation media. Dilute dimethylsulfoxide 1:20 for use in control wells.
8. Remove starvation media from 96 well cell culture plates and add 162 μl of fresh starvation media to each well.
9. Add 18 μl of 1:20 diluted compound dilution (from step 7) to each well plus the 1:20 dimethylsulfoxide dilution to the control wells (+/− VEGF), for a final dilution of 1:200 after cell stimulation. Final dimethylsulfoxide is 0.5%. Incubate the plate at 37° C., 5% CO2 for two hours.
10. […]

Cc1c(Br)cc(Br)c2c1C(=CC1COc3ccccc3O1)C(=O)N2 (racemic) [10739/H05]
PDGF Kinase % Inhibition (P.119) (PDGF-R): −5.0% and −6.4% | Flk Kinase % Inhibition (P.110) (FLK-1 receptor): 5.3% and 10.0%
